Results: patent US11058700B2, “Macrocyclic lactones and uses thereof as modulators of purinergic receptors” (City of Hope, priority 2015, dated 2021)

How the values were obtained:
4T1.2 cells = assay: Cell viability (acid phosphatase assay) of cancer cells treated with Ivermectin; type: cell-based, mouse; conditions: for effect on Ivermectin-induced cell death: cells treated with Ivermectin (32 μM, 4 h in figure legends) in the presence of the agent
Protocol: Cell viability. Cancer cells were plated on 96 well flat-bottom plates and allowed to attach overnight. Cells were then pre-incubated with drugs for 1 h and treated with Ivermectin for 4 h. In the case of 24 h and 48 h incubations the cells, Ivermectin and drugs were plated together. All treatments and controls were done in triplicate wells and results were validated in at least two independent experiments. Following treatment the plates were washed once with PBS and cell viability was measured using the acid phosphatase assay. Briefly, cells were incubated for 1h at 37° C. in 100 μL assay buffer (0.16 M sodium acetate, 0.1% Triton-X-100, supplemented with 4-Nitrophenyl phosphate disodium salt hexahydrate, Sigma Aldrich, at 0.00263 g/ml). Reaction was stopped using 10 μL of 1N sodium hydroxide. Absorption at 405 nm was measured within 10 min using a multi-well plate reader. Mode of cell death and viability of cells in suspension was evaluated using flow cytometry. Briefly, cancer cells were pre-incubated with drugs for 30 min to 1 h, as indicated, treated with Ivermectin for 4 h in 5 ml FACS tubes , washed twice in PBS and stained with PE-conjugated Annexin V and 7AAD (1 μl per 100 μl/200,000 cancer cells) for 15 min.

[1] = tested on: P2X4/P2X7/Pannexin-1 channels; assay: Membrane permeabilization to YOPRO-1; type: cell-based, mouse; conditions: 4T1.2 cells, 3 mM ATP and 32 μM Ivermectin
Protocol: FIGS. 3A-3G. Dual roles of ATP and purinergic signaling in Ivermectin's killing. FIG. 3A: Depletion of extracellular ATP with Apyrase (2500 μunits/ml) exacerbates killing of 4T1.2 cell by Ivermectin. FIG. 3B: Extracellular Ca^2− and ATP contain Ivermectin-induced cell swelling. 4T1.2 cells were treated with 32 μM Ivermectin for 4 h in the presence of 1 mM EDTA or 2500 μunits/ml Apyrase. FIG. 3C: Ivermectin (0.5-32 μM) and high concentrations of extracellular ATP (0.3-3 mM) synergistically open pannexin-1 channels and permeabilize the membrane on live cells (7AAD-positive dead cells were gated out). 4T1.2 cells were treated for 30 min as indicated in the presence of 7 AAD and 5 μM YOPRO-1. FIG. 3D: Analysis of supernatants from Ivermectin-treated murine and human TNBC cells showing rapid release of ATP followed by its transient depletion. Depletion of extracellular ATP with Apyrase (2500 μunits/ml) was used as a positive control. FIG. 3E: Analysis of membrane-proximal ATP levels using cancer cells engineered to express a membrane-bound Luciferase. […] FIG. 3G: The P2X7-specific inhibitor KN-62 (1-10 μM) blocks Ivermectin cytotoxicity (IVM 8-32 μM, 4-48 h treatments). Asterisk (*) indicates p<0.05 relative to untreated or Ivermectin alone controls, respectively.
FIGS. 10A-10L. Extracellular Dual roles of ATP and purinergic signaling in Ivermectin's killing. 4T1.2 cells were treated with Ivermectin for 4 h in the presence of different inhibitors at μM concentrations as indicated. FIG. 10A: The non-specific P2 purinergic receptor inhibitor Suramin (4-400 μM) exacerbates Ivermectin-induced cell death. FIG. 10B: Inhibition of extracellular ATPases with PSB 069 protects against Ivermectin cytotoxicity. FIG. 10C: Blockade of pannexin-1 channels with Panx-1 mimetic blocking peptide (Anaspec) and Probenecid at μM concentrations as indicated exacerbates killing. […] FIG. 10E: ATP plays a transiently protective role only in the mouse but not human breast cancer cells. 4T1.2 and MDA-MB-231 cells were treated with 32 μM Ivermectin for 4 h in the presence of ATP at mM concentrations as indicated. FIG. 10F: qPCR showing up-regulation of P2X4 and P2X7 receptors on several murine cancer cell lines, including 4T1.2 and DD-Her2/neu (breast), and B16 (melanoma). […] Expression of P2X and P2Y purinergic receptors, NOX family members, GABA, and Glycine receptors was analyzed using publicly available breast cancer cell lines datasets. Statistically significant (p<0.05) up-regulation and down-regulation in breast cancer versus normal cells is shown in red and blue, respectively. FIG. 10H: Correlation between sensitivity to Ivermectin and ATP across various human cancer cell lines. Cancer cells were treated for 24 h with 3 mM ATP or Ivermectin at 16 and 32 μM doses as indicated. […]

Row | SMILES | effect on Ivermectin-induced cell death (4T1.2 cells) | block of ATP+Ivermectin-induced membrane permeabilization to YOPRO-1 [1] | KN-62 needed to protect against Ivermectin-induced cell death (4T1.2 cells) | long-term protection against Ivermectin (4T1.2 cells; 24 h, 12 μM IVM)
1 | COc1ccc(S(=O)(=O)N(CCO)c2ccccc2CN(C)C/C=C/c2ccc(Cl)cc2)cc1 [KN-93] | effectively blocked Ivermectin-induced cell death | most potent at blocking ATP- and Ivermectin-induced membrane permeabilization to YOPRO-1 |  | 
2 | CN([C@@H](Cc1ccc(OS(=O)(=O)c2cccc3cnccc23)cc1)C(=O)N1CCN(c2ccccc2)CC1)S(=O)(=O)c1cccc2cnccc12 [KN-62] | effective at blocking Ivermectin-induced necrotic and apoptotic cell death | suppressed permeabilization to YOPRO-1 in a dose-dependent fashion | More than 1 μM | long-term protection against Ivermectin and ATP that extended up to 24 h
3 | Clc1cccc(-c2nnnn2Cc2cccnc2)c1Cl [A438079] | did not observe any protection | suppressed permeabilization to YOPRO-1 in a dose-dependent fashion |  | 
